In article PMC11241340, “The Discovery of Novel α2a Adrenergic Receptor Agonists Only Coupling to Gαi/O Proteins by Virtual Screening” (International Journal of Molecular Sciences, 2024):
Where a chain is given by its changes, count along the chain named.

Assays:
α2B-AR [1] = molecular target: T1, α2B-AR (Homo sapiens, UniProt P18089); experiment: Competitive inhibition of [3H] Rauwolscine binding, CHO-K1 membranes
T1 sequence (P18089 1-450): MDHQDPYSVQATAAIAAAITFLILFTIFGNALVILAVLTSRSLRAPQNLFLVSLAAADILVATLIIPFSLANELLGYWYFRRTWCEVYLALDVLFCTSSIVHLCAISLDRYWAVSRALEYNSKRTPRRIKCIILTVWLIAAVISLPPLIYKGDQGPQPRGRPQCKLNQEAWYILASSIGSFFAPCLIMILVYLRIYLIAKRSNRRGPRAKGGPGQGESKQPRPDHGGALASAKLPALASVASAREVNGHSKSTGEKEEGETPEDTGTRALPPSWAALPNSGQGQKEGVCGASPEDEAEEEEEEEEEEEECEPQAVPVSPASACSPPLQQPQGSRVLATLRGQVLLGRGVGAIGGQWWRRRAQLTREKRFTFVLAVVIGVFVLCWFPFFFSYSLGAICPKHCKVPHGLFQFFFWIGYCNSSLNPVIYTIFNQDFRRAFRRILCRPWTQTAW

[2] = molecular target: T2, α2A-AR mutant Y394A (α2AY394A-AR) (Homo sapiens, UniProt P08913, Y409A); experiment: GloSensor cAMP assay in HEK293 cells transfected with α2AY394A-AR; format: cell-based; conditions: forskolin 10 μM
T2 construct: Flag; expressed in transfected cells; host or cells: HEK293
T2 sequence (P08913 1-465 Y409A): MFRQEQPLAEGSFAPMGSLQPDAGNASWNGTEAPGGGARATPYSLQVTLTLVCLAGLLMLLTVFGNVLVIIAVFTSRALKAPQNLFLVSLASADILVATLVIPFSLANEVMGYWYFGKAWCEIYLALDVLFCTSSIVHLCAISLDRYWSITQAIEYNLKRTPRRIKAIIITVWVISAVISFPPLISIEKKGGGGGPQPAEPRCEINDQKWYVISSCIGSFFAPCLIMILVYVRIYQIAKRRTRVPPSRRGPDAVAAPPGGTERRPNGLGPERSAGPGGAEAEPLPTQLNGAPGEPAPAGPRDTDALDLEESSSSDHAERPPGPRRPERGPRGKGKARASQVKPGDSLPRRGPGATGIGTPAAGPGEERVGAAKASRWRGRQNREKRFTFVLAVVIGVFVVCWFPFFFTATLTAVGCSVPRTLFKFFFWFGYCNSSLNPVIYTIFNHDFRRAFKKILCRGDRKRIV
Protocol: (§1) According to the GloSensor cAMP biosensor (Promega, Shanghai, China) manufacturer protocols, HEK293 cells were co-transfected with the pGloSensor-22F cAMP plasmid (Promega, E1171) and pCMV6 Entry-Flag-α2A-AR. After 24 h, the cells were seeded in white 96-well plates. The next day, the cell media were replaced by 90 μL of fresh DMEM with 2% v/v GloSensor cAMP reagent (Promega, E1290) and incubated for 60 min at 37 °C. Before drug stimulation, an initial measurement of the baseline signal was detected. […] PTX 500 ng/mL pretreatment for 24 h was used to assay the chemical effects on Gi coupling following α2A-AR activation. Two mutations, V114A and Y394A were introduced into the α2A-AR genes, respectively, using standard QuickChange PCR. […] In each experiment, the cAMP assay used pcDNA3.1 myc/hisB transfected cells as a negative control and cells stimulated with 10 μM of forskolin as a positive control. The signal was read using a Victor 2D Instrument (PerkinElmer) at 675 nm. The production of cAMP% was calculated (the signal value after chemicals addition–baseline signal value)/the baseline signal value *100 as described in our previous study.

[3] = molecular target: T3, α2A-AR mutant V114A (α2AV114A-AR) (Homo sapiens, UniProt P08913, V129A); experiment: GloSensor cAMP assay in HEK293 cells transfected with α2AV114A-AR; format: cell-based; conditions: forskolin 10 μM
T3 construct: Flag; expressed in transfected cells; host or cells: HEK293
T3 sequence (P08913 1-465 V129A): T2 sequence (P08913 1-465 Y409A) with V129A, A409Y
Protocol: as §1

C57/B6 mice = conditions: 432 nmol/kg, i.p.
Protocol: C57BL/6 mice (20–22 g) were purchased from the SPF biotechnology co., LTD (Beijing, China). All the animals were housed in an alternating 12 h light/12 h dark cycle room, which was maintained in a climate-controlled environment (25 ± 1 °C). Animals had free access to water and food. All the experimental procedures were reviewed and approved by the ethics committee and institutional animal care and use committee of the Beijing Institute of Pharmacology and Toxicology, Beijing, China (IACUC of AMMS–06–2017–001). Animals were assigned to groups randomly before testing. Testing occurred within the same approximate time of day between experiments. The experimenter was blinded to treatment throughout the course of behavioral testing.
The LORR in C57/B6 mice were used to study the effects of screening compounds.

α2B-AR [4] = molecular target: T1, α2B-AR; experiment: GloSensor cAMP assay in HEK293 cells transfected with α2B-AR; format: cell-based; parameters: Flag; expressed in transfected cells; host or cells: HEK293; conditions: for effect on cAMP accumulation (agonist activity) in α2B-AR cells: HEK293 α2B-AR, DMED 10^−10–10^−7M, P300–2342 10^−10–10^−5M; for effect of pretreatment on cAMP accumulation induced by DMED (antagonist activity): α2B-AR-HEK293 cells, 10 μM
α2A-AR [5] = molecular target: T4, α2A-AR (Homo sapiens, UniProt P08913); experiment: GloSensor cAMP assay in HEK293 cells transfected with α2A-AR; format: cell-based; parameters: Flag; expressed in transfected cells; host or cells: HEK293; conditions: for decrease in cAMP accumulation after pertussis toxin pretreatment: PTX 500 ng/mL, 24 h; for increase of cAMP accumulation (Gαs coupling) / decrease of cAMP accumulation stimulated by forskolin (Gαi/o coupling): α2A-AR HEK293, P300–2342 10^−10–10^−5M; for increase of cAMP accumulation (Gαs coupling): DMED 10^−8–10^−5M; for decrease of cAMP accumulation stimulated by forskolin (Gαi/o coupling): FSK 10^−5M, DMED 10^−13–10^−9M
T4 sequence (P08913 1-465): T2 sequence (P08913 1-465 Y409A) with A409Y
Protocol: as §1

α2A-AR [6] = molecular target: T4, α2A-AR; experiment: Competitive inhibition of [3H] Rauwolscine binding, CHO-K1 membranes
C57BL/6 mice = experiment: Spontaneous locomotor activity of mice; format: in vivo, mouse; conditions: for inhibition of mice locomotor activity compared to solvent: 10 nmol/mice, i.c.v.
Text: Animals had free access to water and food. […] Animals were assigned to groups randomly before testing.

| SMILES | IC50 (α2B-AR [1]) | cAMP production in α2AY394A-AR compared to α2A-AR wild type [2] | decrease of cAMP production in α2AY394A-AR cells [2] | cAMP production in α2AV114A-AR compared to α2A-AR wild type [3] | decrease of cAMP production in α2AV114A-AR cells [3] | LORR induced in mice (C57/B6 mice) | effect on cAMP accumulation (agonist activity) in α2B-AR cells (α2B-AR [4]) | decrease in cAMP accumulation after pertussis toxin pretreatment (α2A-AR [5]) | increase of cAMP accumulation (Gαs coupling) (α2A-AR [5]) | decrease of cAMP accumulation stimulated by forskolin (Gαi/o coupling) (α2A-AR [5]) | effect of pretreatment on cAMP accumulation induced by DMED (antagonist activity) (α2B-AR [4]) | maximum binding inhibition of [3H] Rauwolscine, α2B-AR (α2B-AR [1]) | IC50 (α2A-AR [6]) | maximum binding inhibition of [3H] Rauwolscine, α2A-AR (α2A-AR [6]) | inhibition of mice locomotor activity compared to solvent (C57BL/6 mice) | effect on cAMP accumulation in presence of α2A-AR selective antagonist BRL44408 (α2A-AR [5]; BRL44408 1 μM) | antagonism of the locomotor inhibition by α2-AR antagonist atipamezole (C57BL/6 mice; compound 10 nmol/mice i.c.v., atipamezole 0.2 mg/kg i.p.) | locomotor activity of mice (abstract statement) (C57BL/6 mice; p < 0.05, dose not given) |
| --- | --- | --- | --- | --- | --- | --- | --- | --- | --- | --- | --- | --- | --- | --- | --- | --- | --- | --- |
| Cc1cccc([C@H](C)c2cnc[nH]2)c1C [DMED, Dexmedetomidine, reference compound] | 0.0146 µM | increased | did not decrease | increased | did not decrease | 50% | concentration-dependently increased | abolished | concentration-dependently increased | concentration-dependently decreased | – | – | – | – | – | – | – | – |
| COc1ccccc1N1CCN(CCN2C(=O)c3ccccc3C(C)(C)C2=O)CC1 [ARC239, reference compound] | – | – | – | – | – | – | – | – | – | – | decreased | – | – | – | – | – | – | – |
| CCN(CC)CCNC(=O)c1ccc2c(c1)n(Cc1ccccc1)c(=O)c1ccnn12 [P300–1500] | 19 µM | – | – | – | – | – | no activation | – | without increasing | decreased | no effects | 85% | 9.66 µM | 90% | 30%–60% | – | – | – |
| O=C(NCCN1CCCCC1)c1ccc2c(c1)n(Cc1cccc(F)c1)c(=O)c1ccnn12 [P300–2344] | 15.9 µM | – | – | – | – | – | no activation | – | without increasing | decreased | no effects | 86% | 11.3 µM | 91% | 30%–60% | – | – | – |
| CCN(CC)CCNC(=O)c1ccc2c(c1)n(Cc1cccc(F)c1)c(=O)c1ccnn12 [P300–2342] | – | – | did not decrease | – | did not decrease | – | no effect | abolished | without increasing | concentration-dependently decreased | slightly decreased | 71% | – | 83% | – | antagonized | could be antagonized | significantly decreased |
| CN(C)CCNC(=O)c1ccc2c(c1)n(Cc1cccc(F)c1)c(=O)c1ccnn12 [T226–1970] | 8.56 µM | – | – | – | – | – | no activation | – | without increasing | decreased | slightly decreased | 94% | 19.5 µM | 85% | 30%–60% | – | – | – |
